Reference: US5856535A, “Aminosterol ester compounds” (priority 1996, dated 1999)
In brackets after ≈: the same amount, converted by molar mass. Entries after “also recorded” stand apart in the source; their conditions may differ. Read-outs that look alike come from different tables or passages of the source.

Columns and labels:
[1] = test system: LLC; assay: LLC MTT; type: cell-based; settings: Lewis lung carcinoma, 48 h; Table II; read-out: Minimum Effective Concentration, LLC MTT
Experimental: (§1) The MTT assay for cell number is performed as follows. Cells are counted on a hemocytometer and diluted to a concentration of approx. 10,000 cells/well (55,000 cells/ml×0.18 ml). Cells are then plated in a 96 well microtiter plate and allowed to attach overnight. The next day, compounds are serially diluted from 1000 to 15.6 μg/ml and run in duplicate. 20 μl of each dilution are transferred to the pre-seeded microtiter plates. The final concentrations are 100 to 1.56 μg/ml. The plates are then incubated for 48 hours at 37° C. in 5% CO2. After 48 hours, MTT solution is added. The plate is re-incubated for 4 hours. Readings are done by removing all but 30 μl of media and MTT solution and dissolving the formazan crystals with DMSO. The formazan is dissolved by mixing on a rotating plate at low speed for about 30 minutes. Absorbance of converted dye is measured at a wavelength of 560 nm with background subtraction at 630 nm. The percent survival is determined by a comparison between the mean absorbance of the duplicate test lanes and the growth control.

[2] = test system: melanoma cells; assay: MTT assay for cell number; type: cell-based; settings: for minimal effective concentration: 48 h, Table II, read-out: Minimum Effective Concentration, MTT assay
Experimental: In Table V, several aminosterol esters show efficacy in killing melanoma cells in the MTT assay.
as §1

[3] = test system: E. Coli; assay: antibiotic activity, E. Coli; type: cell-based; settings: Escherichia coli
[4] = test system: P. aerug; assay: antibiotic activity, P. aerug; type: cell-based
[5] = test system: C. albicans; assay: antibiotic activity, C. albicans; type: cell-based; settings: Candida albicans
[6] = test system: S. aureus; assay: antibiotic activity, S. aureus; type: cell-based; settings: Staphylococcus aureus
[7] = test system: human microvascular cells; assay: endothelial cell cord formation assay (human microvascular cells, VEGF and bFGF, collagen matrix); type: cell-based; settings: for inhibition of angiogenesis (in words): higher doses; for minimal effective concentration: Homo sapiens, Endothelial cell
Excerpt: Endothelial cells have the capacity in vitro to form tubular aggregates resembling capillaries in various early stages of formation. This conversion occurs under relatively specific conditions, in which essential growth factors along with an effective substratum are provided. It has been shown that both the interaction of growth factors with the endothelial cell and its attachment to a substratum activate the NHE. The activation of this exchanger is believed to be required for subsequent morphologic transformation of the endothelial cell into a multicellular tubular structure.
To assess the effect of compounds on the cord-like structures formed by human microvascular cells when plated in the presence of VEGF (Vascular Endothelial Growth Factor) and basic fibroblast growth factor on a collagen matrix, a standard cord formation assay was performed using the method described by Goto, et al., "Synergistic Effects of Vascular Endothelial Growth Factor and Basic Fibroblast Growth Factor on the Proliferation and Cord Formation of Bovine Capillary Endothelial Cells Within Collagen Gels," Laboratory Investigation, Vol. 69, No. 5, 1993, pp. 508-517. This article is entirely incorporated herein by reference.

[8] = test system: chick embryo vitelline capillaries; assay: chick embryo vitelline capillary regression assay; type: in vivo; design: key to Chick embryo vitelline capillary regression: +: Vascular reactivity; 0: No vascular reactivity; +/-: Equivocal reactivity
Experimental: Using the chick embryo vitelline capillaries assay, various aminosterol compounds were tested for their ability to induce capillary regression. Each compound was applied in 0.1 ml of 15% Ficol 400 and PBS onto the embryo, and vascular regression was assessed after 60 minutes. These tests were conducted by the chorioallantoic membrane anti-angiogenesis assay by applying the material to be assayed to 3 day old fertilized chick embryos in the manner described by Wilks et al., "Inhibition of Angiogenesis With Combination Angiostatic Steroids and Suramin," Radiation Biology, Vol. 60, Nos. 1/2, 1991, pp. 73-77, which article is entirely incorporated herein by reference.
The 3-day chick embryo consists of an embryonic disc from which numerous vessels emerge and return, forming a "figure 8"-shaped structure--the embryo in the center with vascular loops extending outward over both poles. […] Following a lag period of around 15 minutes, the constriction of continuity between capillary and secondary vessels, generally on the "venous" side, was observed. Continued pulsatile blood flow progressed, resulting in a "swelling" of the blind tube, followed by a pinching off of the remaining connection and formation of an enclosed vascular sac resembling a "blood island." This process progressed until only the largest vessels remained intact.

[9] = in vitro; settings: human, pbmc
[10] = test system: splenocytes; assay: mitogen proliferation assay (splenocytes of treated mice, Con A); type: in vivo; settings: for Rel. potency to MSI-1436, Mitogen Proliferation Assay: 10 mg/kg iv; for potency in the mitogen proliferation assay (in words): mouse, in vivo
Experimental: For the attached Tables, the mitogen proliferation assay was performed by treating mice (male or female) with various amounts of the aminosterol test compounds. Some time later (typically between 2 hours and 14 days), the mice are sacrificed and their spleens removed. Splenocytes are harvested and cultured in the presence of between 1-10 μg/ml of Con A (Sigma) for 48 hours. See James Morgan, "Monoclonal Antibody Production," Modern Methods in Pharmacology, pp. 29-67, eds., Spector and Back, 1988. This excerpt is entirely incorporated herein by reference. Cell proliferation is monitored either by direct cell counting or by measurement of the incorporation of radioactive thymidine.

[11] = test system: HIV; assay: inhibition of HIV replication in vitro (HIV Inhib.); type: cell-based; settings: for inhibition at 0.14 µM: Human immunodeficiency virus 1, read-out: % Inhib of HIV
[12] = inhibition of MSI-1436 binding; settings: 3H-MSI-1436 at 20 μg/mL
[13] = test system: Xenopus laevis Stages 59-60 tadpoles; assay: tadpole assay; type: in vivo; settings: for effect on embryonic epithelium / epithelial shedding (in words): 10 μg/ml where stated
[14] = test system: red blood cells; assay: swelling of red blood cells; type: cell-based
[15] = test system: human ovarian carcinoma, SKOV3; assay: anticancer activity against SKOV3; type: cell-based

With `CC(C)[C@@H](CC[C@@H](C)[C@H]1CC[C@H]2[C@@H]3[C@H](O)C[C@H]4C[C@@H](NCCCNCCCCN)CC[C@]4(C)[C@H]3CC[C@]12C)OS(=O)(=O)O` [drawing 92] the minimal effective concentration [1] was 13.2 µg/mL and the minimal effective concentration [2] was 7.8 µg/mL.
`CC(CCC(CO)(OS(=O)(=O)O)C(C)C)[C@H]1CCC2C3C(CC[C@@]21C)[C@@]1(C)CC[C@H](NCCCNCCCCN)C[C@@H]1C[C@H]3O` (stereo partly shown) [drawing 52] showed an MIC [3] of 4 µg/mL (≈ 6.08 µM), an MIC [4] of 16 µg/mL (≈ 24.3 µM) and an MIC [5] of 16 µg/mL (≈ 24.3 µM). The MIC [6] was 2 µg/mL (≈ 3.04 µM).
With `COC(=O)CC[C@@H](C)[C@H]1CC[C@H]2[C@@H]3[C@H](O)C[C@@H]4C[C@@H](NCCCNCCCCNCCCN)CC[C@]4(C)[C@H]3CC[C@]12C` [Compound 411] the “inhibition of angiogenesis (in words)” value [7] was “inhibit angiogenesis at higher doses” and the “Chick embryo vitelline capillary regression” value ([8]; 1 μg applied, 60 minutes) was “+/-”.
With `CC(CCC(=O)O)[C@H]1CCC2C3C(CC[C@@]21C)[C@@]1(C)CC[C@@H](NCCCNCCCCNCCCN)C[C@H]1C[C@H]3O` (stereo partly shown) the MIC [3] was 8 µg/mL (≈ 13.9 µM) and the MIC [6] was 64 µg/mL (≈ 111 µM).
For `CC(CCC(CO)(OS(=O)(=O)O)C(C)C)[C@H]1CCC2C3C(CC[C@@]21C)[C@@]1(C)CC[C@H](NCCCNCCCCN)C[C@@H]1C[C@H]3O` (stereo partly shown) [drawing 99], the cytotoxicity at 14 µM [9] was 0%, the “Rel. potency to MSI-1436, Mitogen Proliferation Assay” value [10] was 1.08 and the inhibition at 0.14 µM [11] was -44%. For the same molecule, the “% Inhib. of MSI-1436 Binding @ 100 μg/mL” value [12] was 14%.
Molecule `CC(C)CCCC(C)[C@H]1CCC2C3CC[C@H]4C[C@@H](NCCCNCCCCNCCCN)CC[C@]4(C)C3CC[C@@]21C` (stereo partly shown) has a minimal effective concentration ([7]; Table II, read-out: Minimum Effective Concentration, HM Cord Formation) of 10 µg/mL and a minimal effective concentration [2] of 3 µg/mL.
Molecule `CC(CC[C@@H](OS(=O)(=O)O)C(C)C)[C@H]1CCC2C3C(CC[C@@]21C)[C@@]1(C)CC[C@H](NCCCNCCCCNCCCN)C[C@@H]1C[C@H]3O` (stereo partly shown) [drawing 51] has an MIC [3] of 1 to 2 µg/mL (≈ 1.46 to 2.92 µM), an MIC [4] of 4 µg/mL (≈ 5.84 µM) and an MIC [5] of 8 µg/mL (≈ 11.7 µM). The MIC [6] was 1 µg/mL (≈ 1.46 µM).
In the case of `CO[C@@H]1[C@H](OC(=O)/C=C/C=C/C=C/C=C/C(=O)O)CC[C@]2(CO2)[C@H]1[C@@]1(C)O[C@@H]1CC=C(C)C` [Fumagillin, reference compound], the minimal effective concentration ([7]; text to the table, read-out: concentration at which cord formation is inhibited) was 10 µg/mL.
For `COC(=O)CC[C@@H](C)[C@H]1CC[C@H]2[C@@H]3[C@H](O)C[C@@H]4C[C@H](NCCN)CC[C@]4(C)[C@H]3CC[C@]12C` [Compound 410], the “effect on embryonic epithelium / epithelial shedding (in words)” value [13] was “functionally similar to compound 1437”, the “inhibition of angiogenesis (in words)” value [7] was “inhibit angiogenesis at higher doses” and the “effect on vitelline capillaries (in words)” value ([8]; 3- to 5-day chick embryo) was “substantial activity”.
With `CC(CC[C@@H](OS(=O)(=O)O)C(C)C)[C@H]1CCC2C3C(CC[C@@]21C)[C@@]1(C)CC[C@H](NCCCNCCCCNCCCN)C[C@@H]1C[C@H]3O` (stereo partly shown) [drawing 93] the minimal effective concentration [1] was 16.7 µg/mL and the minimal effective concentration [2] was 6.9 µg/mL.
For `COC(=O)CC[C@@H](C)[C@H]1CC[C@H]2[C@@H]3CC[C@@H]4C[C@H](NCCCNCCCCNCCCN)CC[C@]4(C)[C@H]3CC[C@]12C` [Compound 569], the cytotoxicity at 14 µM [9] was 9%, the “Rel. potency to MSI-1436, Mitogen Proliferation Assay” value [10] was 0.50 and the “potency in the mitogen proliferation assay (in words)” value (from here on “potency … (in words)”) [10] was “substantial potency”. For the same molecule, the “MTT assay IC50” value ([2]; Tables III-V) was 15 µg/mL, the IC50 ([2]; Tables III-V, read-out: MTT assay IC50) was 14.5 µg/mL (≈ 25.2 µM) and the “inhibition of HIV relative to compound 1436 (in words)” value [11] was “higher inhibition of HIV than compound 1436”. The inhibition at 0.14 µM [11] was 91% and the “% Inhib. of MSI-1436 Binding @ 100 μg/mL” value [12] was 78%.
In the case of `CC(CCC(=O)O)[C@H]1CCC2C3C(CC[C@@]21C)[C@@]1(C)CC[C@H](NCCCNCCCCNCCCN)C[C@@H]1C[C@H]3O` (stereo partly shown), the MIC [3] was 32 to 64 µg/mL (≈ 55.5 to 111 µM), the MIC [4] was 16 µg/mL (≈ 27.7 µM) and the MIC [5] was 32 µg/mL (≈ 55.5 µM). It also gave an MIC [6] of 16 µg/mL (≈ 27.7 µM).
For `COC(=O)CC[C@@H](C)[C@H]1CC[C@H]2[C@@H]3C[C@@H](O)[C@H]4C[C@@H](NCCCNCCCCN)CC[C@]4(C)[C@H]3CC[C@]12C` [Compound 566], the “induction of swelling of red blood cells (in words)” value (shortened to “induction”) [14] was “induce swelling of red blood cells”.
For `COC(=O)CC[C@@H](C)[C@H]1CC[C@H]2[C@@H]3C[C@@H](O)[C@H]4C[C@@H](NCCCNCCCCNCCCN)CC[C@]4(C)[C@H]3CC[C@]12C` [Compound 466], the “potency … (in words)” value [10] was “substantial potency” and the “induction” value [14] was “induce swelling of red blood cells”.
`COC(=O)CCC(C)[C@H]1CCC2C3C(CC[C@@]21C)[C@@]1(C)CC[C@H](NCCCNCCCCN)C[C@H]1C[C@H]3O` (stereo partly shown) gave an MIC [3] of 256 µg/mL (≈ 480 µM), an MIC [4] of over 256 µg/mL and an MIC [5] of 256 µg/mL (≈ 480 µM). The MIC [6] was 64 µg/mL (≈ 120 µM).
For `CC(C)C(CO)(CC[C@@H](C)[C@H]1CC[C@H]2[C@@H]3[C@H](O)C[C@H]4C[C@@H](NCCCNCCCCN)CC[C@]4(C)[C@H]3CC[C@]12C)OS(=O)(=O)O` (stereo partly shown) [Compound 1437], the “anticancer activity (in words)” value [15] was “exhibit anticancer activity”, the “time to shedding of larval skin” value ([13]; 10 μg/ml) was at most 60 min and the “effect on embryonic epithelium / epithelial shedding (in words)” value [13] was “dramatic effect on the embryonic epithelium covering the tadpole tail; also recorded: larval skin was observed to shed off in a sheet”.
For `COC(=O)CC[C@@H](C)[C@H]1CC[C@H]2[C@@H]3CC[C@H]4C[C@@H](NCCCNCCCCNCCCN)CC[C@]4(C)[C@H]3CC[C@]12C` [Compound 459], the “potency … (in words)” value [10] was “substantial potency” and the “induction” value [14] was “induce swelling of red blood cells”.
For `COC(=O)CCC(C)[C@H]1CCC2C3C(CC[C@@]21C)[C@@]1(C)CC[C@@H](NCCCNCCCCN)C[C@H]1C[C@H]3O` (stereo partly shown) [drawing 38], the MIC [3] was 32 to 64 µg/mL (≈ 59.9 to 120 µM), the MIC [4] was 64 µg/mL (≈ 120 µM) and the MIC [5] was 64 µg/mL (≈ 120 µM). It also gave an MIC [6] of 4 µg/mL (≈ 7.49 µM).
In the case of `C=C(C)C(=O)CC[C@@H](C)[C@H]1CC[C@H]2[C@@H]3[C@H](O)C[C@H]4C[C@@H](NCCCNCCCCN)CC[C@]4(C)[C@H]3CC[C@]12C` [Compound 1361, reference compound], the “induction” value [14] was “induce swelling of red blood cells”.
